Legend:
[1] = target: AMPK-alpha2 (PRKAA2) (Homo sapiens (Human), UniProt P54646); test: KINOMEscan scanMAX; type: binding; conditions: 2000 nM; read-out: Percent Control
[2] = target: BMPR1A (Homo sapiens (Human), UniProt P36894); test: KINOMEscan scanMAX; type: binding; conditions: 2000 nM; read-out: Percent Control
[3] = target: BRAF(V600E) (Homo sapiens (Human), UniProt P15056, V600E); test: KINOMEscan scanMAX; type: binding; conditions: 2000 nM; read-out: Percent Control
[4] = target: CAMK1D (Homo sapiens (Human), UniProt Q8IU85); test: KINOMEscan scanMAX; type: binding; conditions: 2000 nM; read-out: Percent Control
[5] = target: CASK (Homo sapiens (Human), UniProt O14936); test: KINOMEscan scanMAX; type: binding; conditions: 2000 nM; read-out: Percent Control
[6] = target: CHEK1 (Homo sapiens (Human), UniProt O14757); test: KINOMEscan scanMAX; type: binding; conditions: 2000 nM; read-out: Percent Control
[7] = target: EGFR(L858R, T790M) (Homo sapiens (Human), UniProt P00533, L858R/T790M); test: KINOMEscan scanMAX; type: binding; conditions: 2000 nM; read-out: Percent Control
[8] = target: EGFR(L861Q) (Homo sapiens (Human), UniProt P00533, L861Q); test: KINOMEscan scanMAX; type: binding; conditions: 2000 nM; read-out: Percent Control
Sequence of EGFR(L861Q) (P00533 25-1210 L861Q): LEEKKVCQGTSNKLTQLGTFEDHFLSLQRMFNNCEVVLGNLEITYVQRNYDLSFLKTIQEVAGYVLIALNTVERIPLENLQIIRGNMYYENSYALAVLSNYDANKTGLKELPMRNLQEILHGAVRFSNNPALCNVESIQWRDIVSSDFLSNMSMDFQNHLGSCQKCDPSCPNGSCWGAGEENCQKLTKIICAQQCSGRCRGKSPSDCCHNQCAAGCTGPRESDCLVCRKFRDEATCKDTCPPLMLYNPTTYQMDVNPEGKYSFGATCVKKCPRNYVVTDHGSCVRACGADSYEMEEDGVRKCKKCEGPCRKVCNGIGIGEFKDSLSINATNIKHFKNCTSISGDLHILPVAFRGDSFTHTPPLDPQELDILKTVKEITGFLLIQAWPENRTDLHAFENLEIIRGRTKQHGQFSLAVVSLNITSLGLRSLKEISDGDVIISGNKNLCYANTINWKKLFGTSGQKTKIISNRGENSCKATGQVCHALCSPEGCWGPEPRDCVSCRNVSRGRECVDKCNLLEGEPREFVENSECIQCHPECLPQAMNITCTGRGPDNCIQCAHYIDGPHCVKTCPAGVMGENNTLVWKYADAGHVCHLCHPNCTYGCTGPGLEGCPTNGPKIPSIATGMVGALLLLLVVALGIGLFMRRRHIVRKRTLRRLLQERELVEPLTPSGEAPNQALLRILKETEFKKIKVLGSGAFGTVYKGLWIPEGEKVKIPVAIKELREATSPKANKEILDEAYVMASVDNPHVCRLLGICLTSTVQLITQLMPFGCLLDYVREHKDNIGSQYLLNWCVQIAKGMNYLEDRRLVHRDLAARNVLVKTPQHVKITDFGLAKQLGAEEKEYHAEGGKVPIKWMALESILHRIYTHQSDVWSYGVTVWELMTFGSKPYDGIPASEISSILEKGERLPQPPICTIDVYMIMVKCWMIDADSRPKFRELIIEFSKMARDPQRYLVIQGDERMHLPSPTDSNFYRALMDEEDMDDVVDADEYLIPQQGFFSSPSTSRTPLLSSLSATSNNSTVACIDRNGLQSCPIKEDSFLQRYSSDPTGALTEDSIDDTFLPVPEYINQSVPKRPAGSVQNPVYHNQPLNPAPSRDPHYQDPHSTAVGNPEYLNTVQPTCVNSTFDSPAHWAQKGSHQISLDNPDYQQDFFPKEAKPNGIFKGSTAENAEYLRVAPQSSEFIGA

[9] = target: EPHA8 (Homo sapiens (Human), UniProt P29322); test: KINOMEscan scanMAX; type: binding; conditions: 2000 nM; read-out: Percent Control
[10] = target: ERBB3 (Homo sapiens (Human), UniProt P21860); test: KINOMEscan scanMAX; type: binding; conditions: 2000 nM; read-out: Percent Control
[11] = target: ERK5 (MAPK7) (Homo sapiens (Human), UniProt Q13164); test: KINOMEscan scanMAX; type: binding; conditions: 2000 nM; read-out: Percent Control
[12] = target: FGFR4 (Homo sapiens (Human), UniProt P22455); test: KINOMEscan scanMAX; type: binding; conditions: 2000 nM; read-out: Percent Control
[13] = test system: FLT3(ITD, F691L); test: KINOMEscan scanMAX; type: binding, human; conditions: 2000 nM
[14] = target: FLT3(R834Q) (Homo sapiens (Human), UniProt P36888, R834Q); test: KINOMEscan scanMAX; type: binding; conditions: 2000 nM; read-out: Percent Control
[15] = target: HIPK1 (Homo sapiens (Human), UniProt Q86Z02); test: KINOMEscan scanMAX; type: binding; conditions: 2000 nM; read-out: Percent Control
[16] = target: HIPK3 (Homo sapiens (Human), UniProt Q9H422); test: KINOMEscan scanMAX; type: binding; conditions: 2000 nM; read-out: Percent Control
[17] = target: IKK-alpha (CHUK) (Homo sapiens (Human), UniProt O15111); test: KINOMEscan scanMAX; type: binding; conditions: 2000 nM; read-out: Percent Control
[18] = target: JAK3(JH1domain-catalytic) (Homo sapiens (Human), UniProt P52333); test: KINOMEscan scanMAX; type: binding; conditions: 2000 nM; read-out: Percent Control
Sequence of JAK3(JH1domain-catalytic) (P52333 822-1111): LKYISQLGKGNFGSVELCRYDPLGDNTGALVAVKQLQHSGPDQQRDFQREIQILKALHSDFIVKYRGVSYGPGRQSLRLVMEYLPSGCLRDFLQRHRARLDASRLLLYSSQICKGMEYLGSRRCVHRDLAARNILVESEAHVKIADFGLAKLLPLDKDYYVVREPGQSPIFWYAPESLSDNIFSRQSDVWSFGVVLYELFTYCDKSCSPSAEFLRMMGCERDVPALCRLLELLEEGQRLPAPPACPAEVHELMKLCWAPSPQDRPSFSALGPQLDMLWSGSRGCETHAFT

[19] = target: KIT(V559D, V654A) (Homo sapiens (Human), UniProt P10721, V559D/V654A); test: KINOMEscan scanMAX; type: binding; conditions: 2000 nM; read-out: Percent Control
[20] = target: LRRK2 (Homo sapiens (Human), UniProt Q5S007); test: KINOMEscan scanMAX; type: binding; conditions: 2000 nM; read-out: Percent Control
[21] = target: MAP3K3 (Homo sapiens (Human), UniProt Q99759); test: KINOMEscan scanMAX; type: binding; conditions: 2000 nM; read-out: Percent Control
[22] = target: MEK2 (MAP2K2) (Homo sapiens (Human), UniProt P36507); test: KINOMEscan scanMAX; type: binding; conditions: 2000 nM; read-out: Percent Control
Sequence of MEK2 (MAP2K2) (P36507 whole entry): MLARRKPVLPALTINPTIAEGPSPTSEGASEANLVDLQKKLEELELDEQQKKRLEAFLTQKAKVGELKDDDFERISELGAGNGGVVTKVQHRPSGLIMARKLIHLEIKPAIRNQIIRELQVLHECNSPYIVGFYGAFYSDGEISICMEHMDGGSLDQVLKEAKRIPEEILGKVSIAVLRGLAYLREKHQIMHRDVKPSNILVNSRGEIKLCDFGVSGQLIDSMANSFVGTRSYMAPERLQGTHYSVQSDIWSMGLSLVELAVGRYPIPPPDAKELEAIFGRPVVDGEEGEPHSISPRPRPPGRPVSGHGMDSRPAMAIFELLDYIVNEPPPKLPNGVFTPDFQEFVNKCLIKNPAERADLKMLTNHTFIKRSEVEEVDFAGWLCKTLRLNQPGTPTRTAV

[23] = target: MEK6 (MAP2K6) (Homo sapiens (Human), UniProt P52564); test: KINOMEscan scanMAX; type: binding; conditions: 2000 nM; read-out: Percent Control
[24] = target: MLK3 (MAP3K11) (Homo sapiens (Human), UniProt Q16584); test: KINOMEscan scanMAX; type: binding; conditions: 2000 nM; read-out: Percent Control
[25] = target: NEK1 (Homo sapiens (Human), UniProt Q96PY6); test: KINOMEscan scanMAX; type: binding; conditions: 2000 nM; read-out: Percent Control
[26] = target: PAK3 (Homo sapiens (Human), UniProt O75914); test: KINOMEscan scanMAX; type: binding; conditions: 2000 nM; read-out: Percent Control
[27] = target: PHKG1 (Homo sapiens (Human), UniProt Q16816); test: KINOMEscan scanMAX; type: binding; conditions: 2000 nM; read-out: Percent Control
Sequence of PHKG1 (Q16816 whole entry): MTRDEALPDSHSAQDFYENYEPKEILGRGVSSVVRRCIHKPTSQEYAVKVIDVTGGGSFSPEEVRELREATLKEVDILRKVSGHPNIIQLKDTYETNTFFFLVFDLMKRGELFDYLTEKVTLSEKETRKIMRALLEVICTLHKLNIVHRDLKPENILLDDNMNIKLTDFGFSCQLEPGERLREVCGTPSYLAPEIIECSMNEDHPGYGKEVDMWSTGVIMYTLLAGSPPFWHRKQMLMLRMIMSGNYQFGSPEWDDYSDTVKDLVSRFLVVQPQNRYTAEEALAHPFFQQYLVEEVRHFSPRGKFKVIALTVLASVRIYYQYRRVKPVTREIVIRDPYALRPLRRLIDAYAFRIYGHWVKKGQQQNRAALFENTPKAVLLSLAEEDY

[28] = target: PRKD3 (Homo sapiens (Human), UniProt O94806); test: KINOMEscan scanMAX; type: binding; conditions: 2000 nM; read-out: Percent Control
[29] = target: PRKG2 (Homo sapiens (Human), UniProt Q13237); test: KINOMEscan scanMAX; type: binding; conditions: 2000 nM; read-out: Percent Control
[30] = target: PRKR (EIF2AK2) (Homo sapiens (Human), UniProt P19525); test: KINOMEscan scanMAX; type: binding; conditions: 2000 nM; read-out: Percent Control
[31] = target: PYK2 (PTK2B) (Homo sapiens (Human), UniProt Q14289); test: KINOMEscan scanMAX; type: binding; conditions: 2000 nM; read-out: Percent Control
Sequence of PYK2 (PTK2B) (Q14289 whole entry): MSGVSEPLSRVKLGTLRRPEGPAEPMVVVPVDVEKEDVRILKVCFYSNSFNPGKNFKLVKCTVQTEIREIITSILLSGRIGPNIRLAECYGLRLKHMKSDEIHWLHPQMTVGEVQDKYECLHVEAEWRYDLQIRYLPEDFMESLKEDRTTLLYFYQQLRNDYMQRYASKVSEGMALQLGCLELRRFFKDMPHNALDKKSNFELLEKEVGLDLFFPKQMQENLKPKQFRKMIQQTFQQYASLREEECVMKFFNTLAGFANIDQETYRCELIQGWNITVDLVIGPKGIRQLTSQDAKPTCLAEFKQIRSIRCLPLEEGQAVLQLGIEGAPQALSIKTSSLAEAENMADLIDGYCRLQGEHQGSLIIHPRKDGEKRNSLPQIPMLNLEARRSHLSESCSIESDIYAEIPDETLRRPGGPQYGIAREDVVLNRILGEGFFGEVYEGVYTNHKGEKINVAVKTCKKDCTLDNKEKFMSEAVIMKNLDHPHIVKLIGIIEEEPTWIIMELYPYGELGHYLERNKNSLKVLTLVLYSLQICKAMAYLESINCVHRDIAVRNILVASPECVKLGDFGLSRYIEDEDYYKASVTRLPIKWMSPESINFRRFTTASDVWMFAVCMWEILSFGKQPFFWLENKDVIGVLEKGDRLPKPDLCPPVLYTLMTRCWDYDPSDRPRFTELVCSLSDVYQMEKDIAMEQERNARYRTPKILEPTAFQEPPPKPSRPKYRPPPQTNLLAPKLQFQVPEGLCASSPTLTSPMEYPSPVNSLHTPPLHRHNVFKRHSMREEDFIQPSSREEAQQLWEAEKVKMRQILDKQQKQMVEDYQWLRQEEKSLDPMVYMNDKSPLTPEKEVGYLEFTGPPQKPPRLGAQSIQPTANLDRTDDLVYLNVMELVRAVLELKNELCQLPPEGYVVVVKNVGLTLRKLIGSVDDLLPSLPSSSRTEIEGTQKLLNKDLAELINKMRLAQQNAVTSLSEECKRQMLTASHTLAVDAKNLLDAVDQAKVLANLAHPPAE

[32] = target: QSK (KIAA0999) (Homo sapiens (Human), UniProt Q9Y2K2); test: KINOMEscan scanMAX; type: binding; conditions: 2000 nM; read-out: Percent Control
[33] = target: S6K1 (RPS6KB1) (Homo sapiens (Human), UniProt P23443); test: KINOMEscan scanMAX; type: binding; conditions: 2000 nM; read-out: Percent Control
[34] = target: SIK2 (Homo sapiens (Human), UniProt Q9H0K1); test: KINOMEscan scanMAX; type: binding; conditions: 2000 nM; read-out: Percent Control
[35] = target: SNRK (Homo sapiens (Human), UniProt Q9NRH2); test: KINOMEscan scanMAX; type: binding; conditions: 2000 nM; read-out: Percent Control
[36] = target: TYK2(JH1domain-catalytic) (Homo sapiens (Human), UniProt P29597); test: KINOMEscan scanMAX; type: binding; conditions: 2000 nM; read-out: Percent Control
[37] = target: WNK3 (Homo sapiens (Human), UniProt Q9BYP7); test: KINOMEscan scanMAX; type: binding; conditions: 2000 nM; read-out: Percent Control
Sequence of WNK3 (Q9BYP7 whole entry): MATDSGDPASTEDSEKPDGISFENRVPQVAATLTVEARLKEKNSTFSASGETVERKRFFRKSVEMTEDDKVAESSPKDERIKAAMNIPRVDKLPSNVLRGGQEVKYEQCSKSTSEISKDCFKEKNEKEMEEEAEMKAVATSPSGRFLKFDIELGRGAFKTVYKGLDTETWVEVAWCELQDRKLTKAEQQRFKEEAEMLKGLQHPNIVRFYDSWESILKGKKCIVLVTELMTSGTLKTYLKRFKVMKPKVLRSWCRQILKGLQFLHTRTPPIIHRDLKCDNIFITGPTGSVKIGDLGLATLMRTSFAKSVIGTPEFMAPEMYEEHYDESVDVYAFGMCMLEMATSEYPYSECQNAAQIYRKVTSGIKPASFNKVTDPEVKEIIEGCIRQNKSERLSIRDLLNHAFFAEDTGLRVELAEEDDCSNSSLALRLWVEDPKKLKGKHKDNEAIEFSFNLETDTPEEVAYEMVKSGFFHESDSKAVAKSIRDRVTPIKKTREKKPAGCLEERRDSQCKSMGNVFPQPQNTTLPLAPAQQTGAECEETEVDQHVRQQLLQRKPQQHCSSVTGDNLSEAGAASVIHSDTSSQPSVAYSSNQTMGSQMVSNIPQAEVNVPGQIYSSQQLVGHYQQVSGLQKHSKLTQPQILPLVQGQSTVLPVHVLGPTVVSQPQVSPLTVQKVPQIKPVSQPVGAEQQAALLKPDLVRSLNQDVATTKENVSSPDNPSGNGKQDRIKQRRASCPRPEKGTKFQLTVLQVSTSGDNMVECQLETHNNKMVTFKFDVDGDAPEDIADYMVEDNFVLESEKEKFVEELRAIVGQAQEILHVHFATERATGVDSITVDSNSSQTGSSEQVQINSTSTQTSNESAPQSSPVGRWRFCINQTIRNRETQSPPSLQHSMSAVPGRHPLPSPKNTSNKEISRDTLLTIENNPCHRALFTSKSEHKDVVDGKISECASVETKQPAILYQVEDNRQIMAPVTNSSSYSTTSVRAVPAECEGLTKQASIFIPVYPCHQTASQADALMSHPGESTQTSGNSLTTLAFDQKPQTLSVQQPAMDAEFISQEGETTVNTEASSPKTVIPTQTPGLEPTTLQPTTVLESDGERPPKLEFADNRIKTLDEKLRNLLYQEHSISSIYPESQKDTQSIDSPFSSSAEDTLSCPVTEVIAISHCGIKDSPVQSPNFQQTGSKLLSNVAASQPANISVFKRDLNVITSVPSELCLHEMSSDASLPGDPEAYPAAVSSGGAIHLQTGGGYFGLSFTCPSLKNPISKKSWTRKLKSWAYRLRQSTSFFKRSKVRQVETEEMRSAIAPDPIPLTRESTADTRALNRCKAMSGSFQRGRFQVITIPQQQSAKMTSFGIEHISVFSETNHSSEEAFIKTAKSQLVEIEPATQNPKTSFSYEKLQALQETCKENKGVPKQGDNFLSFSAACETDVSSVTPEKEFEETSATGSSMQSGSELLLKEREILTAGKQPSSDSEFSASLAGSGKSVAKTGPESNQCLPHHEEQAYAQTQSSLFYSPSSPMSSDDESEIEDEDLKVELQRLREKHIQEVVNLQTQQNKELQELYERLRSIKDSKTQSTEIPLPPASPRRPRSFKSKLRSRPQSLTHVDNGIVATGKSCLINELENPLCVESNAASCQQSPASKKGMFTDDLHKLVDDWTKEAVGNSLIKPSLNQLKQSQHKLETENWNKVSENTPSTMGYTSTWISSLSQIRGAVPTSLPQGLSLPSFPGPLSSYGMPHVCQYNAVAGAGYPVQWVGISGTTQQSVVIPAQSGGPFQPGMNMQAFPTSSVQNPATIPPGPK

[38] = target: YANK3 (STK32C) (Homo sapiens (Human), UniProt Q86UX6); test: KINOMEscan scanMAX; type: binding; conditions: 2000 nM; read-out: Percent Control
[39] = target: MYO3B (Homo sapiens (Human), UniProt Q8WXR4); test: DiscoverX Kd assay; conditions: average from duplicate measurements

How did the remaining binding at 2 µM [1] turn out when `CN1CCN(C(=O)c2ccc3cc(CCNc4ccnc5ccc(C#N)cc45)ccc3c2)CC1` [compound 6148, 4-((2-(6-(4-methylpiperazine-1-carbonyl)naphthalen-2-yl)ethyl)amino)quinoline-6-carbonitrile] was run?
Its remaining binding at 2 µM is 42%.

What about the remaining binding at 2 µM [2] of the same compound?
Its remaining binding at 2 µM is 95%.

And the remaining binding at 2 µM [3]?
The remaining binding at 2 µM was 89%.

And the remaining binding at 2 µM [4]?
The remaining binding at 2 µM was 80%.

And the remaining binding at 2 µM [5]?
Its remaining binding at 2 µM is 84%.

And the remaining binding at 2 µM [6]?
Its remaining binding at 2 µM is 100%.

What about the remaining binding at 2 µM [7] of the same compound?
The remaining binding at 2 µM was 82%.

What about the remaining binding at 2 µM [8] of the same compound?
The remaining binding at 2 µM was 64%.

And the remaining binding at 2 µM [9]?
The remaining binding at 2 µM was 91%.

And the remaining binding at 2 µM [10]?
Its remaining binding at 2 µM is 76%.

And the remaining binding at 2 µM [11]?
The remaining binding at 2 µM was 94%.

And the remaining binding at 2 µM [12]?
The remaining binding at 2 µM was 96%.

What about the “Percent Control” value [13] of the same compound?
The value was 59%.

What about the remaining binding at 2 µM [14] of the same compound?
The remaining binding at 2 µM was 70%.

And the remaining binding at 2 µM [15]?
The remaining binding at 2 µM was 73%.

What about the remaining binding at 2 µM [16] of the same compound?
Its remaining binding at 2 µM is 52%.

What about the remaining binding at 2 µM [17] of the same compound?
Its remaining binding at 2 µM is 76%.

What about the remaining binding at 2 µM [18] of the same compound?
Its remaining binding at 2 µM is 65%.

And the remaining binding at 2 µM [19]?
Its remaining binding at 2 µM is 89%.

And the remaining binding at 2 µM [20]?
The remaining binding at 2 µM was 85%.

What about the remaining binding at 2 µM [21] of the same compound?
The remaining binding at 2 µM was 83%.

And the remaining binding at 2 µM [22]?
The remaining binding at 2 µM was 64%.

What about the remaining binding at 2 µM [23] of the same compound?
The remaining binding at 2 µM was 80%.

What about the remaining binding at 2 µM [24] of the same compound?
The remaining binding at 2 µM was 99%.

What about the remaining binding at 2 µM [25] of the same compound?
Its remaining binding at 2 µM is 84%.

And the remaining binding at 2 µM [26]?
Its remaining binding at 2 µM is 98%.

And the remaining binding at 2 µM [27]?
The remaining binding at 2 µM was 95%.

And the remaining binding at 2 µM [28]?
The remaining binding at 2 µM was 100%.

What about the remaining binding at 2 µM [29] of the same compound?
The remaining binding at 2 µM was 84%.

And the remaining binding at 2 µM [30]?
Its remaining binding at 2 µM is 88%.

And the remaining binding at 2 µM [31]?
Its remaining binding at 2 µM is 92%.

And the remaining binding at 2 µM [32]?
The remaining binding at 2 µM was 55%.

And the remaining binding at 2 µM [33]?
The remaining binding at 2 µM was 78%.

What about the remaining binding at 2 µM [34] of the same compound?
Its remaining binding at 2 µM is 100%.

And the remaining binding at 2 µM [35]?
The remaining binding at 2 µM was 75%.

What about the remaining binding at 2 µM [36] of the same compound?
Its remaining binding at 2 µM is 62%.

And the remaining binding at 2 µM [37]?
The remaining binding at 2 µM was 75%.

And the remaining binding at 2 µM [38]?
The remaining binding at 2 µM was 100%.

And the Kd [39]?
Its Kd is over 30 µM.

Source: US12281080B2, “Quinoline-based compounds and methods of inhibiting CDK8/19” (University of South Carolina, priority 2018, dated 2025)
